Drawing on patent US12091411B2, “IRAK degraders and uses thereof” (Kymera Therapeutics, Inc., priority 2022, dated 2024), this text covers DC50 for 32 compounds.

Where two headings read alike, the source gives them in different places.

The target of the experiment is T1, IRAK4 (Homo sapiens, UniProt Q9NWZ3).
T1 construct: Degradation of IRAK4 in OCI-LY10 was quantitatively measured using Meso Scale Discovery technology; endogenous in cells; host or cells: OCI-LY10
T1 sequence (Q9NWZ3 1-460): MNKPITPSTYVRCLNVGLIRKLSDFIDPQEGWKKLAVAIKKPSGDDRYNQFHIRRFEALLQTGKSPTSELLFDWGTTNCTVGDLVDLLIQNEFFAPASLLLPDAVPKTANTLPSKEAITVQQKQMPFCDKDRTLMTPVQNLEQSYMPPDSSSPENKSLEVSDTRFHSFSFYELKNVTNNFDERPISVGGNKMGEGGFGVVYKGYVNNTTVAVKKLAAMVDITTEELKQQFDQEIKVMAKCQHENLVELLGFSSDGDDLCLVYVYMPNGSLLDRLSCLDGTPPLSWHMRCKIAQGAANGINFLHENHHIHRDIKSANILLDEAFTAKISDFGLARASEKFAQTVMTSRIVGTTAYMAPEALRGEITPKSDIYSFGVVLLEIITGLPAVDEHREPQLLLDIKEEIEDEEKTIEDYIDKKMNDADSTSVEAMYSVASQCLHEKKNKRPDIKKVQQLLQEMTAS
The experiment is described as follows: IRAK4 MSD Degradation in OCI-LY10. The experiment is classed as cell-based. The conditions noted are these: OCI-LY10 cells, MSD. The essentials:
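DC50, from a three-parameter logistic fit and reported as letter bins A (<0.01 μM), B, C, D (>0.2 μM or not tested), reflects IRAK4 loss measured by MSD electrochemiluminescence in OCI-LY10 lysates. Treatment: 8 doses, 1:3 steps, top 1 to 10 μM, 4 to 24 h, 37 °C.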

Where [1] appears, read: 4 hrs incubation, read-out: IRAK4 degradation in OCI-LY10 at 4 hrs: DC50.
The mark [2] stands for this setting: 24 hrs incubation, read-out: IRAK4 degradation in OCI-LY10 at 24 hrs: DC50.

Consider `O=C1CCN(c2cncc3c(C4CCN(C[C@H]5CC[C@H](n6cc7cc(NC(=O)c8cccc(C(F)(F)F)n8)ccc7n6)CC5)CC4(F)F)cccc23)C(=O)N1` (stereo partly shown) [I-709], for which the DC50 (commonly the concentration giving 50% degradation) by setting is: under setting [1], over 200 nM; under setting [2], 10 to 100 nM.
For the compound `COc1cc2nn([C@H]3CC[C@H](CN(C)C4CCN(c5cccc6c5n(C)c(=O)n6C5CCC(=O)NC5=O)CC4(F)F)CC3)cc2cc1NC(=O)c1cccc(C(F)(F)F)n1` (stereo partly shown) [I-710], the DC50 was over 200 nM under setting [1] and 10 to 100 nM under setting [2].
For `Cn1c(=O)n(C2CCC(=O)NC2=O)c2cccc(C3CCN(C[C@]4(O)CC[C@@H](n5cc6cc(NC(=O)c7cccc(C(F)(F)F)n7)ccc6n5)CC4)CC3)c21` (stereo partly shown) [I-711] the same measures were over 200 nM and under 10 nM.
For `Cn1c(=O)n(C2CCC(=O)NC2=O)c2ccc(N3CCN(CC4COC5(C4)CN(C[C@H]4CC[C@H](n6cc(NC(=O)c7cnn8ccc(N9C[C@H]%10C[C@@H]9CO%10)nc78)c(C(F)F)n6)CC4)C5)CC3)cc21` (stereo partly shown) [I-712] the same measures were over 200 nM and under 10 nM.
For `Cn1c(=O)n(C2CCC(=O)NC2=O)c2cccc(C3=CCN(C[C@H]4CC[C@H](n5cc6cc(NC(=O)c7cccc(C(F)(F)F)n7)c(C#N)cc6n5)CC4)CC3F)c21` (stereo partly shown) [I-713] the same measures were over 200 nM and under 10 nM.
Turning to `Cn1c(=O)n(C2CCC(=O)NC2=O)c2cccc(C#CCO[C@H]3CCN(C[C@H]4CC[C@H](n5cc(NC(=O)c6cnn7ccc(N8CCS(=O)(=O)CC8)nc67)c(C(F)F)n5)CC4)C[C@@H]3F)c21` (stereo partly shown) [I-714], the DC50 runs as follows: under setting [1], over 200 nM; under setting [2], under 10 nM.
For the compound `Cn1c(=O)n(C2CCC(=O)NC2=O)c2cccc(C#CCO[C@@H]3CCN(C[C@H]4CC[C@H](n5cc(NC(=O)c6cnn7ccc(N8CCS(=O)(=O)CC8)nc67)c(C(F)F)n5)CC4)C[C@H]3F)c21` (stereo partly shown) [I-715], the DC50 under setting [1] is over 200 nM and the DC50 under setting [2] is under 10 nM.
For `Cn1c(=O)n(C2CCC(=O)NC2=O)c2cccc(C3CCN(C[C@H]4CC[C@H](n5cc6cc(NC(=O)c7cccc(C#N)n7)ccc6n5)CC4)CC3(F)F)c21` (stereo partly shown) [I-716] the same measures were over 200 nM and under 10 nM.
For `Cn1c(=O)n(C2CCC(=O)NC2=O)c2cccc([C@H]3CCN(C[C@H]4CC[C@H](n5cc6cc(NC(=O)c7cccc(C(F)(F)F)n7)ncc6n5)CC4)C[C@@H]3F)c21` (stereo partly shown) [I-717] the same measures were over 200 nM and under 10 nM.
With `Cn1c(=O)n(C2CCC(=O)NC2=O)c2cccc([C@H]3C[C@H](CO[C@H]4CCN(C[C@H]5CC[C@H](n6cc(NC(=O)c7cnn8ccc(N9C[C@H]%10C[C@@H]9CO%10)nc78)c(C(F)F)n6)CC5)C[C@@H]4F)C3)c21` (stereo partly shown) [I-718], the half-maximal degradation concentration (DC50) under setting [1] is over 200 nM and the DC50 under setting [2] is under 10 nM.
With `Cn1c(=O)n(C2CCC(=O)NC2=O)c2cccc(C3CCN(C[C@H]4CC[C@H](n5cc6cc(NC(=O)c7cnn8ccc(N9C[C@H]%10C[C@@H]9CO%10)nc78)ccc6n5)CC4)CC3(F)F)c21` (stereo partly shown) [I-719], the half-maximal degradation concentration (DC50) is, setting by setting: under setting [1], over 200 nM; under setting [2], under 10 nM.
For `Cn1c(=O)n(C2CCC(=O)NC2=O)c2cccc(N3CCN([C@@H]4CCN(C[C@H]5CC[C@H](n6cc(NC(=O)c7cnn8ccc(N9C[C@H]%10C[C@@H]9CO%10)nc78)c(C(F)F)n6)CC5)CC4(F)F)CC3)c21` (stereo partly shown) [I-720] the same measures were over 200 nM and under 10 nM.
In the same order, the values of `Cn1c(=O)n(C2CCC(=O)NC2=O)c2cccc(N3CCN([C@H]4CCN(C[C@H]5CC[C@H](n6cc(NC(=O)c7cnn8ccc(N9C[C@H]%10C[C@@H]9CO%10)nc78)c(C(F)F)n6)CC5)CC4(F)F)CC3)c21` (stereo partly shown) [I-721] are over 200 nM and under 10 nM.
Turning to `Cn1c(=O)n(C2CCC(=O)NC2=O)c2cccc([C@H]3C[C@H](CO[C@@H]4CCN(C[C@H]5CC[C@H](n6cc(NC(=O)c7cnn8ccc(N9C[C@H]%10C[C@@H]9CO%10)nc78)c(C(F)F)n6)CC5)C[C@@H]4F)C3)c21` (stereo partly shown) [I-722], the 50% degradation concentration (DC50) under setting [1] is over 200 nM and the DC50 under setting [2] is under 10 nM.
In the same order, the values of `Cn1c(=O)n(C2CCC(=O)NC2=O)c2cccc(N3CCN(C4CCN(C[C@H]5CC[C@H](n6cc(NC(=O)c7cnn8ccc(N9CCC%10(COC%10)C9)nc78)c(C(F)F)n6)CC5)CC4(F)F)CC3)c21` (stereo partly shown) [I-723] are over 200 nM and under 10 nM.
Consider `Cn1c(=O)n(C2CCC(=O)NC2=O)c2ccc(N3CC(CN4CCN(C[C@H]5CC[C@H](n6cc(NC(=O)c7cnn8ccc(N9C[C@H]%10C[C@@H]9CO%10)nc78)c(C(F)F)n6)CC5)CC4)C3)c(F)c21` (stereo partly shown) [I-724], for which the DC50 runs as follows: under setting [1], over 200 nM; under setting [2], under 10 nM.
In the same order, the values of `Cn1c(=O)n(C2CCC(=O)NC2=O)c2ccc(N3CC(CO[C@@H]4CCN(CC5CCC(n6cc(NC(=O)c7cnn8ccc(N9C[C@H]%10C[C@@H]9CO%10)nc78)c(C(F)F)n6)CC5)C[C@@H]4F)C3)c(F)c21` (stereo partly shown) [I-725] are over 200 nM and over 200 nM.
In the same order, the values of `Cn1c(=O)n(C2CCC(=O)NC2=O)c2cccc(C3=CCN(C[C@H]4CC[C@H](n5cc6cc(NC(=O)c7cccc(C(F)(F)F)n7)c(C(F)F)cc6n5)CC4)CC3F)c21` (stereo partly shown) [I-726] are over 200 nM and under 10 nM.
For `Cc1cccc(C(=O)Nc2ccc3nn([C@H]4CC[C@H](CN5CC[C@@H](c6cccc7c6n(C)c(=O)n7C6CCC(=O)NC6=O)[C@H](F)C5)CC4)cc3c2)n1` (stereo partly shown) [I-727] the same measures were over 200 nM and under 10 nM.
Consider `Cn1c(=O)n(C2CCC(=O)NC2=O)c2cccc(N3CC(O[C@H]4CCN(C[C@H]5CC[C@H](n6cc(NC(=O)c7cnn8ccc(N9C[C@H]%10C[C@@H]9CO%10)nc78)c(C(F)F)n6)CC5)C[C@H]4F)C3)c21` (stereo partly shown) [I-728], for which the DC50 was over 200 nM under setting [1] and under 10 nM under setting [2].
In the same order, the values of `CO[C@]1(CN2CCN(C[C@H]3CC[C@H](n4cc(NC(=O)c5cnn6ccc(N7C[C@H]8C[C@@H]7CO8)nc56)c(C(F)F)n4)CC3)CC2)C[C@@H](c2cccc3c2n(C)c(=O)n3C2CCC(=O)NC2=O)C1` (stereo partly shown) [I-729] are over 200 nM and under 10 nM.
In the case of `Cn1c(=O)n(C2CCC(=O)NC2=O)c2cccc(N3CC(N4CCN([C@H]5CC[C@H](n6cc(NC(=O)c7cnn8ccc(N9C[C@H]%10C[C@@H]9CO%10)nc78)c(C(F)F)n6)CC5)CC4)C3)c21` (stereo partly shown) [I-730], the DC50 reads like this: under setting [1], over 200 nM; under setting [2], under 10 nM.
For the compound `Cn1c(=O)n(C2CCC(=O)NC2=O)c2cccc(C3CCN(C[C@H]4CC[C@H](n5cc6cc(NC(=O)c7cccc(C#N)n7)ncc6n5)CC4)CC3F)c21` (stereo partly shown) [I-731], the DC50 is over 200 nM under setting [1] and under 10 nM under setting [2].
For `Cn1c(=O)n(C2CCC(=O)NC2=O)c2cccc(N3CC(O[C@@H]4CCN(C[C@H]5CC[C@H](n6cc(NC(=O)c7cnn8ccc(N9C[C@H]%10C[C@@H]9CO%10)nc78)c(C(F)F)n6)CC5)C[C@H]4F)C3)c21` (stereo partly shown) [I-732] the same measures were over 200 nM and under 10 nM.
In the same order, the values of `Cn1c(=O)n(C2CCC(=O)NC2=O)c2cccc(N3CC(O[C@H]4CCN(C[C@H]5CC[C@H](n6cc(NC(=O)c7cnn8ccc(N9C[C@H]%10C[C@@H]9CO%10)nc78)c(C(F)F)n6)CC5)C[C@@H]4F)C3)c21` (stereo partly shown) [I-733] are over 200 nM and under 10 nM.
For `Cn1c(=O)n(C2CCC(=O)NC2=O)c2cccc(C3CCN(CC4CCC(n5cc6cc(NC(=O)c7cnn8ccc(N9CC%10CC9CO%10)cc78)ncc6n5)CC4)CC3(F)F)c21` (stereo not shown) [I-734] the same measures were over 200 nM and under 10 nM.
In the case of `Cn1c(=O)n(C2CCC(=O)NC2=O)c2cccc(N3CCN(C4CCN(C[C@H]5CC[C@H](n6cc(NC(=O)c7cnn8ccc(N9CC%10(COC%10)C9)nc78)c(C(F)F)n6)CC5)CC4(F)F)CC3)c21` (stereo partly shown) [I-735], the DC50 was over 200 nM under setting [1] and under 10 nM under setting [2].
Consider `Cn1c(=O)n(C2CCC(=O)NC2=O)c2ccc(N3CC4(CCN(C[C@H]5CC[C@H](n6cc7cc(NC(=O)c8cccc(C(F)(F)F)n8)ncc7n6)CC5)CC4(F)F)C3)c(F)c21` (stereo partly shown) [I-737], for which the 50% degradation concentration (DC50) runs as follows: under setting [1], over 200 nM; under setting [2], 10 to 100 nM.
For `Cn1c(=O)n(C2CCC(=O)NC2=O)c2cccc(OC3CCN([C@H]4CC[C@H](n5cc(NC(=O)c6cnn7ccc(N8C[C@H]9C[C@@H]8CO9)nc67)c(C(F)F)n5)CC4)CC3)c21` (stereo partly shown) [I-739] the same measures were over 200 nM and under 10 nM.
With `Cn1c(=O)n(C2CCC(=O)NC2=O)c2cccc(OC3CCN([C@H]4CC[C@H](n5cc6cc(NC(=O)c7cccc(C(F)(F)F)n7)ncc6n5)CC4)CC3)c21` (stereo partly shown) [I-740], the DC50 was over 200 nM under setting [1] and under 10 nM under setting [2].
In the same order, the values of `Cn1c(=O)n(C2CCC(=O)NC2=O)c2cccc(OC3CCN([C@H]4CC[C@H](n5cc6cc(NC(=O)c7cccc(C(F)(F)F)n7)ccc6n5)CC4)CC3)c21` (stereo partly shown) [I-741] are over 200 nM and under 10 nM.
In the same order, the values of `Cn1c(=O)n(C2CCC(=O)NC2=O)c2ccc(N3CC(CO[C@@H]4CCN(C[C@H]5CC[C@H](n6cc(NC(=O)c7cnn8ccc(N9C[C@H]%10C[C@@H]9CO%10)nc78)c(C(F)F)n6)CC5)C[C@H]4F)C3)c(F)c21` (stereo partly shown) [I-742] are over 200 nM and under 10 nM.
